Reference: patent publication US20170008888A1 (KYORIN PHARMACEUTICAL CO., LTD., priority 2014, published 2017)

Columns and labels:
Type in all cases: binding
TAO2 = biological target: T1, TAO2 (Homo sapiens, UniProt Q9UL54); assay: Probe-based (AX9989) kinase profiling in Jurkat lysate: TAO2; conditions: read-out: TAO2 Inhibition % at indicated screening concentration; for inhibition at 1 µM: screening concentration 1 μM
T1 construct: screened for activity against several kinases in Jurkat cells; endogenous in cells; host or cells: Jurkat cell lysate
T1 sequence (Q9UL54 1-1235): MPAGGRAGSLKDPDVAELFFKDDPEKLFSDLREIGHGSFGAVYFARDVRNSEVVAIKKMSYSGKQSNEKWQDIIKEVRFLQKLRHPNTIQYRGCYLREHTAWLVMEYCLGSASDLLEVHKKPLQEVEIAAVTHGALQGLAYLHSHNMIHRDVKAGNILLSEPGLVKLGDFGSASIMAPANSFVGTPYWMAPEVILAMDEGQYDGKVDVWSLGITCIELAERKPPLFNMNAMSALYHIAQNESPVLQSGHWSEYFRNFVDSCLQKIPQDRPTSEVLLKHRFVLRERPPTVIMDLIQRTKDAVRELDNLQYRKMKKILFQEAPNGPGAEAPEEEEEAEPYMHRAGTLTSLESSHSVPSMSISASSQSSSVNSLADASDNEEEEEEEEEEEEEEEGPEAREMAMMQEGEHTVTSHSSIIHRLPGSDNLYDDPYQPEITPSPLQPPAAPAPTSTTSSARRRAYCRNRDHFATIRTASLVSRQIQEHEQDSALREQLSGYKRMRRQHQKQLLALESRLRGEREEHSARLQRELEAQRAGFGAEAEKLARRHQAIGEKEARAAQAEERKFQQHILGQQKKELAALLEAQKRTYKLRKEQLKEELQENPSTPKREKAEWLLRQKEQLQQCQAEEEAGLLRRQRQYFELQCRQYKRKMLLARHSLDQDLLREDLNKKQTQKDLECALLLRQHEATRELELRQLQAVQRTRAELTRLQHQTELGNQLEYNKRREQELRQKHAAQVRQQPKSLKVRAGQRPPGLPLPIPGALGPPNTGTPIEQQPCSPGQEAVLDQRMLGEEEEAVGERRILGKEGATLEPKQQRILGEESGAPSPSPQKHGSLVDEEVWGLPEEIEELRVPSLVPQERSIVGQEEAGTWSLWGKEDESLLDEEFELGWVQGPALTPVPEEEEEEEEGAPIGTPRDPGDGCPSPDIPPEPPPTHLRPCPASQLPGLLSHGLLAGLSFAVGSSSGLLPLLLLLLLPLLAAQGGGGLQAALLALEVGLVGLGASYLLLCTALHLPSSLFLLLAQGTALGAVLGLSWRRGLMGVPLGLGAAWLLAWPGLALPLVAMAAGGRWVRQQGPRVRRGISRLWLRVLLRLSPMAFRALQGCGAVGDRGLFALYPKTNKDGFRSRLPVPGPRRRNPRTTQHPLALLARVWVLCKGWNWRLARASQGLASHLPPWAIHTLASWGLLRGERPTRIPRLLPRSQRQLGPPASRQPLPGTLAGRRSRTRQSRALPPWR
How it was run: (§1)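 Compounds were pre-incubated for 15 min at room temperature with gel-filtered Jurkat cell lysate supplemented with 20 mM MnCl2, after which the acyl phosphate ATP probe AX9989 was added at 5 μM final. Labeled active-site peptides were enriched after tryptic digestion and measured by LC/MS, with percent inhibition taken relative to samples without compound.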

AurB or AurC = assay: Probe-based (AX9989) kinase profiling in Jurkat lysate: AurB or AurC
How it was run: as §1

ACK = biological target: T2, ACK (Homo sapiens, UniProt Q07912); assay: Probe-based (AX9989) kinase profiling in Jurkat lysate: ACK; conditions: read-out: ACK Inhibition % at indicated screening concentration; for inhibition at 1 µM: screening concentration 1 μM
T2 construct: screened for activity against several kinases in Jurkat cells; endogenous in cells; host or cells: Jurkat cell lysate
T2 sequence (Q07912 whole entry): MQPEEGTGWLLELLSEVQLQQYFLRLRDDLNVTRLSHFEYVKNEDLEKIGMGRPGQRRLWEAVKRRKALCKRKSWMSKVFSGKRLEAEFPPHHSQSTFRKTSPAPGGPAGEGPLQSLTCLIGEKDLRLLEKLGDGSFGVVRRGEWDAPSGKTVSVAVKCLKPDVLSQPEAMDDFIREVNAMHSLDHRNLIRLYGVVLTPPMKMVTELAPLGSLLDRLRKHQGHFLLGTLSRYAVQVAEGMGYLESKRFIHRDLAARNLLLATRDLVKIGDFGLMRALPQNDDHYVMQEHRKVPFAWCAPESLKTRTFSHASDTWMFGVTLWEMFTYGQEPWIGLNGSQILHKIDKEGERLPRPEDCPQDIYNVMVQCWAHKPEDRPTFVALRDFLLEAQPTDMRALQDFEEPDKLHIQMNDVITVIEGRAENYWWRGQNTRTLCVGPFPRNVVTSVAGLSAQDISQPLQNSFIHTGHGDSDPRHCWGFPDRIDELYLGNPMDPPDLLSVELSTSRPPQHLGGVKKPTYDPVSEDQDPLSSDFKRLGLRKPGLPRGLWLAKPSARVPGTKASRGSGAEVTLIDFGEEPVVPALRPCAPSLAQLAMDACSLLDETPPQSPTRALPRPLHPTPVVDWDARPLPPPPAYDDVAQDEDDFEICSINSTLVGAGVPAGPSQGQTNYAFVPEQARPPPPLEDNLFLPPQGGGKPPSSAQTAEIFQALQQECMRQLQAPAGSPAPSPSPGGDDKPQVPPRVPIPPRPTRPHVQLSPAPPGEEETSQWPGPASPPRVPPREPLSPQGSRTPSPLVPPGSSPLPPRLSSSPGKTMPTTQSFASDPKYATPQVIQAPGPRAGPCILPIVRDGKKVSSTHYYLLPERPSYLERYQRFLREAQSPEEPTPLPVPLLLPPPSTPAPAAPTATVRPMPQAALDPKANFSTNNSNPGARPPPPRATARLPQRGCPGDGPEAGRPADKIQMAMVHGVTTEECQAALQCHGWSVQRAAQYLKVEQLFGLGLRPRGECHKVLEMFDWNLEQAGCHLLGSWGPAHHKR
How it was run: as §1

[1] = biological target: T3, BRD4 bromodomain domain I [BRD4(1)] (Homo sapiens, UniProt O60885); assay: BRD4 bromodomain domain 1 inhibition assay (TR-FRET); conditions: for inhibition at 10 µM: screening concentration 10 μM
T3 construct: BRD4 bromodomain domain I [BRD4(1)]; purchased Cayman Chemicals
How it was run: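 0.5% DMSO, in triplicate, using Cayman BRD4(1) TR-FRET protocol with slight modification. 670/620 nm ratio normalized to 10 μM JQ1, with DMSO control set as 0% inhibition.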

JAK1 = biological target: T4, JAK1 (Homo sapiens, UniProt P23458); assay: Probe-based (AX9989) kinase profiling in Jurkat lysate: JAK1; conditions: read-out: JAK1 Inhibition % at indicated screening concentration; for inhibition at 1 µM: screening concentration 1 μM
T4 construct: screened for activity against several kinases in Jurkat cells; endogenous in cells; host or cells: Jurkat cell lysate
T4 sequence (P23458 whole entry): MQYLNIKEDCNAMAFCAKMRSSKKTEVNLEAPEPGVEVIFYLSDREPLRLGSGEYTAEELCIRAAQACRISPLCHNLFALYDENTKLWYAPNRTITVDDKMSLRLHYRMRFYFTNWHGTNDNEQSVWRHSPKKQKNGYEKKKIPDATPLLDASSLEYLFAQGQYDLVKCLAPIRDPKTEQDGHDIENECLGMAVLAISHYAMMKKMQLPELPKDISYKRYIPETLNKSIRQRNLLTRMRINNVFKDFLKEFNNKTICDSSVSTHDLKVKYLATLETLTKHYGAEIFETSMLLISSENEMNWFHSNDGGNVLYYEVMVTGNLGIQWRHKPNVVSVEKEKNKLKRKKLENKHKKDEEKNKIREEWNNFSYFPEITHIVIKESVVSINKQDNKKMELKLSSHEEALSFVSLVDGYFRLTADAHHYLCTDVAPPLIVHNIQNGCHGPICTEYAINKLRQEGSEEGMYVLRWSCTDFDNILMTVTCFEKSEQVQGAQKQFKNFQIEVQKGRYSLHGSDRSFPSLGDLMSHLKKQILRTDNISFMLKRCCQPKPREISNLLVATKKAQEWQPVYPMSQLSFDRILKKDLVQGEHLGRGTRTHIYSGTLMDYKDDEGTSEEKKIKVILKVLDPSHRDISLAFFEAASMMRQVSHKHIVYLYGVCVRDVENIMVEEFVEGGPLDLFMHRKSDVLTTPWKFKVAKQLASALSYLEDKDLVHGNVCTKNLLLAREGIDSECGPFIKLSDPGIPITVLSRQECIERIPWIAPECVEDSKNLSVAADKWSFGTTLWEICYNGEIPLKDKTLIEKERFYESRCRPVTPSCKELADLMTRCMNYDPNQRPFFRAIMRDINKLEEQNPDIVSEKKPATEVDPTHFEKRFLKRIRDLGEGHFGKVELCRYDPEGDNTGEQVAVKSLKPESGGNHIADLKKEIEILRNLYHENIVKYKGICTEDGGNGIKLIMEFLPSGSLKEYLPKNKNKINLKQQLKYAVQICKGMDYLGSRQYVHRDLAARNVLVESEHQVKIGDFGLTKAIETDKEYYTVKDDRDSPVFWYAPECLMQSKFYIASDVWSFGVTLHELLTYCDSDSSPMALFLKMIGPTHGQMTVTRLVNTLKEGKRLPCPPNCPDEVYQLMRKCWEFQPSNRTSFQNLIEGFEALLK
How it was run: as §1

ERK5 = biological target: T5, ERK5 (Homo sapiens, UniProt Q13164); assay: Probe-based (AX9989 acyl phosphate ATP probe) kinase profiling in Jurkat lysate: ERK5; conditions: for IC50: calculated from percent inhibition and screening concentration, Jurkat lysate, AX9989 probe; for inhibition at 1 µM: screening concentration 1 μM
T5 construct: screened for activity against several kinases in Jurkat cells; endogenous in cells; host or cells: Jurkat cell lysate
T5 sequence (Q13164 whole entry): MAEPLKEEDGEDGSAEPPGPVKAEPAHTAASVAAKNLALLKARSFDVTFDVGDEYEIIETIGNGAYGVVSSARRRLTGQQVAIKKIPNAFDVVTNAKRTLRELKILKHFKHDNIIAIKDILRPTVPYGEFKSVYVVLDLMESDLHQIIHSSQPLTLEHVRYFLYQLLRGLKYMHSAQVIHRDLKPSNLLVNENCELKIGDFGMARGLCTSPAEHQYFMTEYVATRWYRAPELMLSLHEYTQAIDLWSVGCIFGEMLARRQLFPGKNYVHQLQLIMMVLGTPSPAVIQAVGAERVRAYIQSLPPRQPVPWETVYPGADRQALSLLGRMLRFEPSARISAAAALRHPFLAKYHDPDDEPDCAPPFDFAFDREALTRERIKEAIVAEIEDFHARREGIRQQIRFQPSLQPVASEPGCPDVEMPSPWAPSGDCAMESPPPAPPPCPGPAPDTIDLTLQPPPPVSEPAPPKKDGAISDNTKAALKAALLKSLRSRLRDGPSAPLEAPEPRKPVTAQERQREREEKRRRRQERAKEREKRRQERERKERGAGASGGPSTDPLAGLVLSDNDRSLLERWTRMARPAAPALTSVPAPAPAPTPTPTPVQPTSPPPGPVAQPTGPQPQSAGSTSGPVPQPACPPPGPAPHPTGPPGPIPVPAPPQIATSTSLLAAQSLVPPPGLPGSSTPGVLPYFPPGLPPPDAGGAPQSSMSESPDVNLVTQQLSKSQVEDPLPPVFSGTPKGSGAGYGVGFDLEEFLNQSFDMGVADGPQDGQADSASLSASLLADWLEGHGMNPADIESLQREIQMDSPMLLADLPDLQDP
How it was run: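 Gel-filtered Jurkat lysate (5 mg/ml, 20 mM MnCl2) preincubated 15 min at room temperature with compound, then labelled with 5 μM AX9989 acyl phosphate ATP probe. Probe-labelled ERK5 active-site peptides quantified by LC/MS after trypsin digestion and streptavidin capture; IC50 calculated from percent inhibition at the screening concentration.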

[2] = read-out: ERK5 Inhibition % at indicated screening concentration

SMILES | inhibition at 1 µM (TAO2) | AurB or AurC Inhibition % at indicated screening concentration (AurB or AurC; screening concentration 1 μM) | inhibition at 1 µM (ACK) | inhibition at 10 µM [1] | inhibition at 1 µM (JAK1) | IC50 (ERK5) | inhibition at 1 µM (ERK5; [2]) | inhibition at 5 µM ([1]; Screening concentration 5 μM) | inhibition at 10 µM (TAO2; screening concentration 10 μM) | AurB or AurC Inhibition % at indicated screening concentration (AurB or AurC; screening concentration 10 μM) | inhibition at 10 µM (ACK; screening concentration 10 μM) | inhibition at 10 µM (JAK1; screening concentration 10 μM) | inhibition at 10 µM (ERK5; screening concentration 10 μM, read-out: ERK5 Inhibition % at indicated screening concentration)
CCOc1cc(C(=O)N2CCN(C3CCN(C)CC3)CC2)ccc1Nc1cc2c(cn1)N(C)C(=O)c1ccccc1N2C [Compound T8] | ≤ 35% | E (E is ≦35%) | ≤ 35% | > 85% | ≤ 35% | ≤ 50 nM | > 90% | – | – | – | – | – | –
CCOc1cc(C(=O)N2CC[C@@H](NCCF)C2)ccc1Nc1cc2c(cn1)N(C)C(=O)c1ccccc1N2C [Compound T9] | ≤ 35% | E (E is ≦35%) | ≤ 35% | 70 to 85% | ≤ 35% | ≤ 50 nM | > 90% | – | – | – | – | – | –
CCOc1cc(C(=O)N2CCC(N3CC[C@@H](O)C3)CC2)ccc1Nc1cc2c(cn1)N(C)C(=O)c1ccccc1N2C [Compound T10] | ≤ 35% | E (E is ≦35%) | ≤ 35% | > 85% | ≤ 35% | ≤ 50 nM | > 90% | – | – | – | – | – | –
CCOc1cc(C(=O)N2CCC(N3CC[C@H](O)C3)CC2)ccc1Nc1cc2c(cn1)N(C)C(=O)c1ccccc1N2C [Compound T11] | ≤ 35% | E (E is ≦35%) | ≤ 35% | > 85% | ≤ 35% | ≤ 50 nM | > 90% | – | – | – | – | – | –
CCOc1cc(C(=O)N2CCN(CCN(C)C)CC2)ccc1Nc1cc2c(cn1)N(C)C(=O)c1ccccc1N2C [Compound T14] | ≤ 35% | E (E is ≦35%) | ≤ 35% | > 85% | ≤ 35% | ≤ 50 nM | > 90% | – | – | – | – | – | –
CCOc1cc(C(=O)N2CCN(CCN3CCOCC3)CC2)ccc1Nc1cc2c(cn1)N(C)C(=O)c1ccccc1N2C [Compound T15] | ≤ 35% | E (E is ≦35%) | ≤ 35% | > 85% | ≤ 35% | ≤ 50 nM | > 90% | – | – | – | – | – | –
CCOc1cc(C(=O)N2CCN(C(C)=O)CC2)ccc1Nc1cc2c(cn1)N(C)C(=O)c1ccccc1N2C [Compound T18] | ≤ 35% | E (E is ≦35%) | ≤ 35% | 70 to 85% | ≤ 35% | ≤ 50 nM | > 90% | – | – | – | – | – | –
CCOc1cc(C(=O)N2CC[C@@H](N3CCN(C)CC3)C2)ccc1Nc1cc2c(cn1)N(C)C(=O)c1ccccc1N2C [Compound T20] | ≤ 35% | E (E is ≦35%) | ≤ 35% | – | ≤ 35% | ≤ 50 nM | > 90% | > 85% | – | – | – | – | –
CCOc1cc(C(=O)N2CC[C@H](C#N)C2)ccc1Nc1cc2c(cn1)N(C)C(=O)c1ccccc1N2C [Compound T22] | ≤ 35% | E (E is ≦35%) | ≤ 35% | < 70% | ≤ 35% | ≤ 50 nM | > 90% | – | – | – | – | – | –
CCOc1cc(C(=O)N2CCC(N3CCCN(C)CC3)CC2)ccc1Nc1cc2c(cn1)N(C)C(=O)c1ccccc1N2C [Compound T31] | ≤ 35% | E (E is ≦35%) | ≤ 35% | > 85% | ≤ 35% | ≤ 50 nM | > 90% | – | – | – | – | – | –
CN1CCN(C2CCN(C(=O)c3ccc(Nc4cc5c(cn4)N(C)C(=O)c4ccccc4N5C)c(OCCF)c3)CC2)CC1 [Compound T34] | ≤ 35% | E (E is ≦35%) | ≤ 35% | 70 to 85% | ≤ 35% | ≤ 50 nM | > 90% | – | – | – | – | – | –
CCOc1cc(C(=O)N2CCC(NC3CCN(C)CC3)C2)ccc1Nc1cc2c(cn1)N(C)C(=O)c1ccccc1N2C (centres unmarked) [Compound T42] | ≤ 35% | E (E is ≦35%) | ≤ 35% | > 85% | ≤ 35% | 50 to 100 nM | > 90% | – | – | – | – | – | –
CC(C)Oc1cc(C(=O)N2CCC[C@H](O)C2)ccc1Nc1cc2c(cn1)N(C)C(=O)c1ccccc1N2C [Compound T48] | – | – | – | 70 to 85% | – | 101 to 500 nM | – | – | ≤ 35% | E (E is ≦35%) | ≤ 35% | ≤ 35% | > 90%
CC(C)Oc1cc(C(=O)N2CCN(C3CCN(C)CC3)CC2)ccc1Nc1cc2c(cn1)N(C)C(=O)c1ccccc1N2C [Compound T49] | ≤ 35% | E (E is ≦35%) | ≤ 35% | > 85% | ≤ 35% | 50 to 100 nM | > 90% | – | – | – | – | – | –
